What was measured:
blackgrass [1] = assay: Test Example 5: herbicidal effect by foliage application, plastic box (Table 20, symbol J); format: in vivo, blackgrass (Alopecurus myosuroides); conditions: foliage application, AAH 320 g/ha, evaluated three weeks after application
How it was run: (§1)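 Foliar spray test: emulsion formulation diluted in water to a set application rate, sprayed onto 14-day-old plants raised in diluvial soil at 25° C to 30° C under glass. Both herbicidal effect and crop effect rated visually three weeks later.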

chickweed [2] = assay: Test Example 5: herbicidal effect by foliage application, plastic box (Table 20, symbol P); format: in vivo, common chickweed (Stellaria media); conditions: foliage application, AAH 320 g/ha, evaluated three weeks after application
How it was run: as §1

oval-leafed pondweed = assay: Test Example 1: herbicidal activity, application before weed generation under submerged conditions (Table 16, symbol C); format: in vivo, oval-leafed pondweed (Monochoria vaginalis); conditions: 320 g/ha applied herbicide
How it was run: (§2)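 Alluvial soil was flooded to 4 cm depth, weed seeds were sown mixed and 2.5-leaf rice seedlings were transplanted. On sowing day, the compound's emulsion, diluted in water to a set dose, was applied to the water surface. Plants grew at 25–30 °C and were scored 0–5 after three weeks.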

lambsquarters [3] = assay: Test Example 4: herbicidal effect by soil treatment (Table 19, symbol O); format: in vivo, lambsquarters (Chenopodium album); conditions: amount of applied herbicide 320 g/ha
How it was run: (§3)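 Herbicidal effect was rated 3 weeks after treatment, using the scoring criteria of an earlier test. The compound, formulated as an emulsion and diluted in water to a set herbicide amount, had been sprayed uniformly on soil over freshly sown seeds. Growth took place in a greenhouse at 25° C. to 30° C.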

windgrass [4] = assay: Test Example 5: herbicidal effect by foliage application, plastic box (Table 20, symbol L); format: in vivo, windgrass (Apera spica-venti); conditions: foliage application, AAH 320 g/ha, evaluated three weeks after application
How it was run: as §1

chickweed [5] = assay: Test Example 4: herbicidal effect by soil treatment (Table 19, symbol P); format: in vivo, common chickweed (Stellaria media); conditions: amount of applied herbicide 320 g/ha
How it was run: as §3

southern crabgrass [6] = assay: Test Example 5: herbicidal effect by foliage application, plastic box (Table 20, symbol F); format: in vivo, southern crabgrass (Digitaria ciliaris); conditions: foliage application, AAH 320 g/ha, evaluated three weeks after application
How it was run: as §1

Italian ryegrass [7] = assay: Test Example 5: herbicidal effect by foliage application, plastic box (Table 20, symbol K); format: in vivo, Italian ryegrass (Lolium multiflorum); conditions: foliage application, AAH 320 g/ha, evaluated three weeks after application
How it was run: as §1

velvetleaf [8] = assay: Test Example 4: herbicidal effect by soil treatment (Table 19, symbol M); format: in vivo, velvetleaf (Abutilon theophrasti); conditions: amount of applied herbicide 320 g/ha
How it was run: as §3

blackgrass [9] = assay: Test Example 4: herbicidal effect by soil treatment (Table 19, symbol J); format: in vivo, blackgrass (Alopecurus myosuroides); conditions: amount of applied herbicide 320 g/ha
How it was run: as §3

barnyard grass [10] = assay: Test Example 3: herbicidal effect by foliage application, Wagner pot (Table 18, symbol H); format: in vivo, barnyard grass (Echinochloa crus-galli); conditions: amount of applied herbicide 320 g/ha
How it was run: (§4)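 Plants were sown in alluvial soil held under 0.1–0.5 cm standing water and grown 14 days in a greenhouse at 25–30 °C. An emulsifiable formulation, water-diluted to the set dose, was then sprayed onto the foliage, and effects were scored three weeks later using previously defined criteria.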

green foxtail [11] = assay: Test Example 4: herbicidal effect by soil treatment (Table 19, symbol G); format: in vivo, green foxtail (Setaria viridis); conditions: amount of applied herbicide 320 g/ha
How it was run: as §3

wild oat [12] = assay: Test Example 4: herbicidal effect by soil treatment (Table 19, symbol I); format: in vivo, wild oat (Avena fatua); conditions: amount of applied herbicide 320 g/ha
How it was run: as §3

Italian ryegrass [13] = assay: Test Example 4: herbicidal effect by soil treatment (Table 19, symbol K); format: in vivo, Italian ryegrass (Lolium multiflorum); conditions: amount of applied herbicide 320 g/ha
How it was run: as §3

windgrass [14] = assay: Test Example 4: herbicidal effect by soil treatment (Table 19, symbol L); format: in vivo, windgrass (Apera spica-venti); conditions: amount of applied herbicide 320 g/ha
How it was run: as §3

wild oat [15] = assay: Test Example 5: herbicidal effect by foliage application, plastic box (Table 20, symbol I); format: in vivo, wild oat (Avena fatua); conditions: foliage application, AAH 320 g/ha, evaluated three weeks after application
How it was run: as §1

green foxtail [16] = assay: Test Example 5: herbicidal effect by foliage application, plastic box (Table 20, symbol G); format: in vivo, green foxtail (Setaria viridis); conditions: foliage application, AAH 320 g/ha, evaluated three weeks after application
How it was run: as §1

barnyard grass [17] = assay: Test Example 4: herbicidal effect by soil treatment (Table 19, symbol H); format: in vivo, barnyard grass (Echinochloa crus-galli); conditions: amount of applied herbicide 320 g/ha
How it was run: as §3

redroot pigweed [18] = assay: Test Example 4: herbicidal effect by soil treatment (Table 19, symbol N); format: in vivo, redroot pigweed (Amaranthus retroflexus); conditions: amount of applied herbicide 320 g/ha
How it was run: as §3

barnyard grass [19] = assay: Test Example 5: herbicidal effect by foliage application, plastic box (Table 20, symbol H); format: in vivo, barnyard grass (Echinochloa crus-galli); conditions: foliage application, AAH 320 g/ha, evaluated three weeks after application
How it was run: as §1

rice flat sedge = assay: Test Example 3: herbicidal effect by foliage application, Wagner pot (Table 18, symbol E); format: in vivo, rice flat sedge (Cyperus iria); conditions: amount of applied herbicide 320 g/ha
How it was run: as §4

late watergrass = assay: Test Example 1: herbicidal activity, application before weed generation under submerged conditions (Table 16, symbol A); format: in vivo, late watergrass (Echinochloa oryzicola); conditions: 320 g/ha applied herbicide
How it was run: as §2

lambsquarters [20] = assay: Test Example 5: herbicidal effect by foliage application, plastic box (Table 20, symbol O); format: in vivo, lambsquarters (Chenopodium album); conditions: foliage application, AAH 320 g/ha, evaluated three weeks after application
How it was run: as §1

Japanese bulrush = assay: Test Example 1: herbicidal activity, application before weed generation under submerged conditions (Table 16, symbol B); format: in vivo, Japanese bulrush (Schoenoplectus juncoides); conditions: 320 g/ha applied herbicide
How it was run: as §2

persian speedwell [21] = assay: Test Example 4: herbicidal effect by soil treatment (Table 19, symbol R); format: in vivo, Persian speedwell (Veronica persica); conditions: amount of applied herbicide 320 g/ha
How it was run: as §3

velvetleaf [22] = assay: Test Example 5: herbicidal effect by foliage application, plastic box (Table 20, symbol M); format: in vivo, velvetleaf (Abutilon theophrasti); conditions: foliage application, AAH 320 g/ha, evaluated three weeks after application
How it was run: as §1

southern crabgrass [23] = assay: Test Example 4: herbicidal effect by soil treatment (Table 19, symbol F); format: in vivo, southern crabgrass (Digitaria ciliaris); conditions: amount of applied herbicide 320 g/ha
How it was run: as §3

persian speedwell [24] = assay: Test Example 5: herbicidal effect by foliage application, plastic box (Table 20, symbol R); format: in vivo, Persian speedwell (Veronica persica); conditions: foliage application, AAH 320 g/ha, evaluated three weeks after application
How it was run: as §1

Chinese sprangletop = assay: Test Example 3: herbicidal effect by foliage application, Wagner pot (Table 18, symbol D); format: in vivo, chinese sprangletop (Leptochloa chinensis); conditions: amount of applied herbicide 320 g/ha
How it was run: as §4

redroot pigweed [25] = assay: Test Example 5: herbicidal effect by foliage application, plastic box (Table 20, symbol N); format: in vivo, redroot pigweed (Amaranthus retroflexus); conditions: foliage application, AAH 320 g/ha, evaluated three weeks after application
How it was run: as §1

Row | Compound | J: blackgrass, herbicidal effect (criteria 0-5) (blackgrass [1]) | P: chickweed, herbicidal effect (criteria 0-5) (chickweed [2]) | Herbicidal effect on C: oval-leafed pondweed (grade 0-5) (oval-leafed pondweed) | herbicidal effect on O: lambsquarters (lambsquarters [3]) | L: windgrass, herbicidal effect (criteria 0-5) (windgrass [4]) | herbicidal effect on P: chickweed (chickweed [5]) | F: southern crabgrass, herbicidal effect (criteria 0-5) (southern crabgrass [6]) | K: Italian ryegrass, herbicidal effect (criteria 0-5) (Italian ryegrass [7]) | herbicidal effect on M: velvetleaf (velvetleaf [8]) | herbicidal effect on J: blackgrass (blackgrass [9]) | herbicidal effect on H: barnyard grass (barnyard grass [10]) | herbicidal effect on G: green foxtail (green foxtail [11]) | herbicidal effect on I: wild oat (wild oat [12]) | herbicidal effect on K: Italian ryegrass (Italian ryegrass [13]) | herbicidal effect on L: windgrass (windgrass [14]) | I: wild oat, herbicidal effect (criteria 0-5) (wild oat [15]) | G: green foxtail, herbicidal effect (criteria 0-5) (green foxtail [16]) | herbicidal effect on H: barnyard grass (barnyard grass [17]) | herbicidal effect on N: redroot pigweed (redroot pigweed [18]) | H: barnyard grass, herbicidal effect (criteria 0-5) (barnyard grass [19]) | further results
1 | Cc1nn(C)c(=O)c(-c2c(-c3ccc(F)cc3F)sc3ccc(F)cc23)c1O [2-342] | 4 (Herbicidal rate of 70% or more and less than 90%) | 5 (Herbicidal rate of 90% or more (almost completely withered)) | 0 (Herbicidal rate of 5% or less (almost no effect)) | 4 (Herbicidal rate of 70% or more and less than 90%) | 5 (Herbicidal rate of 90% or more (almost completely withered)) | 3 (Herbicidal rate of 40% or more and less than 70%) | 5 (Herbicidal rate of 90% or more (almost completely withered)) | 5 (Herbicidal rate of 90% or more (almost completely withered)) | 3 (Herbicidal rate of 40% or more and less than 70%) | 3 (Herbicidal rate of 40% or more and less than 70%) | 5 (Herbicidal rate of 90% or more (almost completely withered)) | 4 (Herbicidal rate of 70% or more and less than 90%) | 0 (Herbicidal rate of 5% or less (almost no effect)) | 5 (Herbicidal rate of 90% or more (almost completely withered)) | 3 (Herbicidal rate of 40% or more and less than 70%) | 4 (Herbicidal rate of 70% or more and less than 90%) | 5 (Herbicidal rate of 90% or more (almost completely withered)) | 4 (Herbicidal rate of 70% or more and less than 90%) | 4 (Herbicidal rate of 70% or more and less than 90%) | 5 (Herbicidal rate of 90% or more (almost completely withered)) | herbicidal effect on E: rice flat sedge (rice flat sedge): 5 (Herbicidal rate of 90% or more (almost completely withered)); Herbicidal effect on A: late watergrass (grade 0-5) (late watergrass): 2 (Herbicidal rate of 20% or more and less than 40%); O: lambsquarters, herbicidal effect (criteria 0-5) (lambsquarters [20]): 5 (Herbicidal rate of 90% or more (almost completely withered)); Herbicidal effect on B: Japanese bulrush (grade 0-5) (Japanese bulrush): 3 (Herbicidal rate of 40% or more and less than 70%); herbicidal effect on R: persian speedwell (persian speedwell [21]): 3 (Herbicidal rate of 40% or more and less than 70%); M: velvetleaf, herbicidal effect (criteria 0-5) (velvetleaf [22]): 5 (Herbicidal rate of 90% or more (almost completely withered)); herbicidal effect on F: southern crabgrass (southern crabgrass [23]): 3 (Herbicidal rate of 40% or more and less than 70%); R: persian speedwell, herbicidal effect (criteria 0-5) (persian speedwell [24]): 5 (Herbicidal rate of 90% or more (almost completely withered)); herbicidal effect on D: Chinese sprangletop (Chinese sprangletop): 5 (Herbicidal rate of 90% or more (almost completely withered)); N: redroot pigweed, herbicidal effect (criteria 0-5) (redroot pigweed [25]): 5 (Herbicidal rate of 90% or more (almost completely withered))
2 | Cc1nn(C)c(=O)c(-c2c(-c3ccc(F)c(F)c3)sc3ccc(F)cc23)c1O [2-344] | 2 (Herbicidal rate of 20% or more and less than 40%) | 5 (Herbicidal rate of 90% or more (almost completely withered)) | 0 (Herbicidal rate of 5% or less (almost no effect)) | 5 (Herbicidal rate of 90% or more (almost completely withered)) | 5 (Herbicidal rate of 90% or more (almost completely withered)) | 4 (Herbicidal rate of 70% or more and less than 90%) | 5 (Herbicidal rate of 90% or more (almost completely withered)) | 5 (Herbicidal rate of 90% or more (almost completely withered)) | 3 (Herbicidal rate of 40% or more and less than 70%) | 0 (Herbicidal rate of 5% or less (almost no effect)) | 5 (Herbicidal rate of 90% or more (almost completely withered)) | 5 (Herbicidal rate of 90% or more (almost completely withered)) | 0 (Herbicidal rate of 5% or less (almost no effect)) | 5 (Herbicidal rate of 90% or more (almost completely withered)) | 0 (Herbicidal rate of 5% or less (almost no effect)) | 3 (Herbicidal rate of 40% or more and less than 70%) | 5 (Herbicidal rate of 90% or more (almost completely withered)) | 4 (Herbicidal rate of 70% or more and less than 90%) | 5 (Herbicidal rate of 90% or more (almost completely withered)) | 5 (Herbicidal rate of 90% or more (almost completely withered)) | herbicidal effect on E: rice flat sedge (rice flat sedge): 5 (Herbicidal rate of 90% or more (almost completely withered)); Herbicidal effect on A: late watergrass (grade 0-5) (late watergrass): 0 (Herbicidal rate of 5% or less (almost no effect)); O: lambsquarters, herbicidal effect (criteria 0-5) (lambsquarters [20]): 4 (Herbicidal rate of 70% or more and less than 90%); Herbicidal effect on B: Japanese bulrush (grade 0-5) (Japanese bulrush): 2 (Herbicidal rate of 20% or more and less than 40%); herbicidal effect on R: persian speedwell (persian speedwell [21]): 5 (Herbicidal rate of 90% or more (almost completely withered)); M: velvetleaf, herbicidal effect (criteria 0-5) (velvetleaf [22]): 5 (Herbicidal rate of 90% or more (almost completely withered)); herbicidal effect on F: southern crabgrass (southern crabgrass [23]): 5 (Herbicidal rate of 90% or more (almost completely withered)); R: persian speedwell, herbicidal effect (criteria 0-5) (persian speedwell [24]): 5 (Herbicidal rate of 90% or more (almost completely withered)); herbicidal effect on D: Chinese sprangletop (Chinese sprangletop): 4 (Herbicidal rate of 70% or more and less than 90%); N: redroot pigweed, herbicidal effect (criteria 0-5) (redroot pigweed [25]): 5 (Herbicidal rate of 90% or more (almost completely withered))

Source: patent publication US20230085307A1, “PYRIDAZINONE COMPOUND AND HERBICIDE” (NISSAN CHEMICAL CORPORATION, priority 2019, published 2023)
